The values below come from the NIST ThermoML archive (doi:10.1021/je800155q).

Molecules are shown by their SMILES. ± gives the expanded uncertainty stated by the source.

A short description of data set [1]: molar enthalpy of vaporization or sublimation. The conditions noted are these: 298.15 K, Calvet Microcalorimeter.
The conditions of data set [2]: Crystal; DTA.

For `CC(C)(C)c1cccc(C(C)(C)C)n1` [2,6-di-tert-butylpyridine], the molar enthalpy in data set [1] (Liquid) amounted to 56.6 ± 2.4 kJ/mol.
As for `CC(C)(C)c1ccncc1` [4-(1,1-dimethylethyl)pyridine], the molar enthalpy in data set [1] (Liquid) amounted to 54.4 ± 2.6 kJ/mol.
For the compound `CC(C)(C)c1cc(C(C)(C)C)nc(C(C)(C)C)c1` [pyridine, 2,4,6-tris(1,1-dimethylethyl)-], the Normal melting temperature in data set [2] came to 68 ± 2 °C. The molar enthalpy in data set [1] (Crystal) was 78.3 ± 3.4 kJ/mol.
